# Assay results from patent US9149038B2, “4-amino-6-(heterocyclic)picolinates and 6-amino-2-(heterocyclic)pyrimidine-4-carboxylates and their use as herbicides” (Dow AgroSciences LLC, priority 2013, dated 2015).
# Where two headings read alike, the source gives them in different places.
# Tested on: Direct Seeded Rice and weed species
# Test: Postemergence herbicidal activity in direct seeded rice, visual rating after 20-22 days and probit GR20/GR50/GR80/GR90 (Table 14)
# Assay type: in vivo
# Conditions: for pest or weed control at 17.5 g/ha / pest or weed control at 35 g/ha / pest or weed control at 70 g/ha: post-emergence, 504 h, postemergence; for pest or weed control at 17.5 g/ha: 17.5 g ai/ha; for pest or weed control at 35 g/ha: 35 g ai/ha; for pest or weed control at 70 g/ha: 70 g ai/ha
# How it was run: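 Visual injury scores (0 = none, 100 = complete kill) taken 20-22 days after treatment and fitted by probit analysis over several doses to give GR20/GR50/GR80/GR90. Plants at 2nd–3rd true leaf in pH about 8.1 loam–sand mix received track-sprayer applications of 187 L/ha containing 1.25% (v/v) crop oil concentrate.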
# [1] = BRAPP (broadleaf signalgrass, Brachiaria platyphylla), read-out: Visual Growth Reduction (%) 21 Days After Application BRAPP
# [2] = CYPDI (small-flower flatsedge, Cyperus difformis), read-out: Visual Growth Reduction (%) 21 Days After Application CYPDI
# [3] = CYPES (yellow nutsedge, Cyperus esculentus), read-out: Visual Growth Reduction (%) 21 Days After Application CYPES
# [4] = CYPIR (rice flatsedge, Cyperus iria), read-out: Visual Growth Reduction (%) 21 Days After Application CYPIR
# [5] = DIGSA (large crabgrass, Digitaria sanguinalis), read-out: Visual Growth Reduction (%) 21 Days After Application DIGSA
# [6] = ECHCG (barnyardgrass, Echinochloa crus-galli), read-out: Visual Growth Reduction (%) 21 Days After Application ECHCG
# [7] = ECHCO (junglerice, Echinochloa colonum), read-out: Visual Growth Reduction (%) 21 Days After Application ECHCO
# [8] = LEFCH (Chinese sprangletop, Leptochloa chinensis), read-out: Visual Growth Reduction (%) 21 Days After Application LEFCH
# [9] = ORYSJ (Oryza sativa, rice crop), read-out: Visual Growth Reduction (%) 21 Days After Application ORYSJ
# [10] = ORYSK (Oryza sativa, rice crop), read-out: Visual Growth Reduction (%) 21 Days After Application ORYSK
# [11] = SCPJU (Japanese bulrush, Schoenoplectus juncoides Roxb.), read-out: Visual Growth Reduction (%) 21 Days After Application SCPJU
# [12] = SEBEX (hemp sesbania, Sesbania exaltata), read-out: Visual Growth Reduction (%) 21 Days After Application SEBEX
compound,measurement,setting,value
Nc1cc(-c2ccc3c(c2F)OC(F)(F)O3)nc(C(=O)O)c1Cl [Compound 41],GR50 BRAPP,"BRAPP (Brachiaria platyphylla), probit analysis, dose for 50 percent growth reduction",0.3 g ai/ha
same,GR80 BRAPP,"BRAPP (Brachiaria platyphylla), probit analysis, dose for 80 percent growth reduction",2 g ai/ha
same,GR90 BRAPP,"BRAPP (Brachiaria platyphylla), probit analysis, dose for 90 percent growth reduction",6 g ai/ha
same,GR50 CYPDI,"CYPDI (Cyperus difformis), probit analysis, dose for 50 percent growth reduction",4 g ai/ha
same,GR80 CYPDI,"CYPDI (Cyperus difformis), probit analysis, dose for 80 percent growth reduction",6 g ai/ha
same,GR90 CYPDI,"CYPDI (Cyperus difformis), probit analysis, dose for 90 percent growth reduction",7 g ai/ha
same,GR50 CYPES,"CYPES (Cyperus esculentus), probit analysis, dose for 50 percent growth reduction",0.0001 g ai/ha
same,GR80 CYPES,"CYPES (Cyperus esculentus), probit analysis, dose for 80 percent growth reduction",0.0001 g ai/ha
same,GR90 CYPES,"CYPES (Cyperus esculentus), probit analysis, dose for 90 percent growth reduction",0.0001 g ai/ha
same,GR50 CYPIR,"CYPIR (Cyperus iria), probit analysis, dose for 50 percent growth reduction",0.0001 g ai/ha
same,GR80 CYPIR,"CYPIR (Cyperus iria), probit analysis, dose for 80 percent growth reduction",0.0001 g ai/ha
same,GR90 CYPIR,"CYPIR (Cyperus iria), probit analysis, dose for 90 percent growth reduction",0.0001 g ai/ha
same,GR50 DIGSA,"DIGSA (Digitaria sanguinalis), probit analysis, dose for 50 percent growth reduction",0.001 g ai/ha
same,GR80 DIGSA,"DIGSA (Digitaria sanguinalis), probit analysis, dose for 80 percent growth reduction",0.131 g ai/ha
same,GR90 DIGSA,"DIGSA (Digitaria sanguinalis), probit analysis, dose for 90 percent growth reduction",2 g ai/ha
same,GR50 ECHCG,"ECHCG (Echinochloa crus-galli), probit analysis, dose for 50 percent growth reduction",0.0018 g ai/ha
same,GR80 ECHCG,"ECHCG (Echinochloa crus-galli), probit analysis, dose for 80 percent growth reduction",0.0018 g ai/ha
same,GR90 ECHCG,"ECHCG (Echinochloa crus-galli), probit analysis, dose for 90 percent growth reduction",0.0018 g ai/ha
same,GR50 ECHCO,"ECHCO (Echinochloa colonum), probit analysis, dose for 50 percent growth reduction",0.0003 g ai/ha
same,GR80 ECHCO,"ECHCO (Echinochloa colonum), probit analysis, dose for 80 percent growth reduction",0.0415 g ai/ha
same,GR90 ECHCO,"ECHCO (Echinochloa colonum), probit analysis, dose for 90 percent growth reduction",1 g ai/ha
same,GR50 LEFCH,"LEFCH (Leptochloa chinensis), probit analysis, dose for 50 percent growth reduction",6 g ai/ha
same,GR80 LEFCH,"LEFCH (Leptochloa chinensis), probit analysis, dose for 80 percent growth reduction",13 g ai/ha
same,GR90 LEFCH,"LEFCH (Leptochloa chinensis), probit analysis, dose for 90 percent growth reduction",20 g ai/ha
same,GR20 ORYSJ,"ORYSJ (Oryza sativa, rice crop), probit analysis, dose for 20 percent growth reduction",1 g ai/ha
same,GR20 ORYSK,"ORYSK (Oryza sativa, rice crop), probit analysis, dose for 20 percent growth reduction",2 g ai/ha
same,GR50 SCPJU,"SCPJU (Schoenoplectus juncoides Roxb.), probit analysis, dose for 50 percent growth reduction",0.0001 g ai/ha
same,GR80 SCPJU,"SCPJU (Schoenoplectus juncoides Roxb.), probit analysis, dose for 80 percent growth reduction",0.0001 g ai/ha
same,GR90 SCPJU,"SCPJU (Schoenoplectus juncoides Roxb.), probit analysis, dose for 90 percent growth reduction",0.0001 g ai/ha
same,GR50 SEBEX,"SEBEX (Sesbania exaltata), probit analysis, dose for 50 percent growth reduction",4 g ai/ha
same,GR80 SEBEX,"SEBEX (Sesbania exaltata), probit analysis, dose for 80 percent growth reduction",9 g ai/ha
same,GR90 SEBEX,"SEBEX (Sesbania exaltata), probit analysis, dose for 90 percent growth reduction",13 g ai/ha
same,pest or weed control at 17.5 g/ha,[1],95 to 100%
same,pest or weed control at 35 g/ha,[1],95 to 100%
same,pest or weed control at 70 g/ha,[1],95 to 100%
same,pest or weed control at 17.5 g/ha,[2],95 to 100%
same,pest or weed control at 35 g/ha,[2],95 to 100%
same,pest or weed control at 70 g/ha,[2],95 to 100%
same,pest or weed control at 17.5 g/ha,[3],95 to 100%
same,pest or weed control at 35 g/ha,[3],95 to 100%
same,pest or weed control at 70 g/ha,[3],95 to 100%
same,pest or weed control at 17.5 g/ha,[4],95 to 100%
same,pest or weed control at 35 g/ha,[4],95 to 100%
same,pest or weed control at 70 g/ha,[4],95 to 100%
same,pest or weed control at 17.5 g/ha,[5],95 to 100%
same,pest or weed control at 35 g/ha,[5],95 to 100%
same,pest or weed control at 70 g/ha,[5],95 to 100%
same,pest or weed control at 17.5 g/ha,[6],85 to 94%
same,pest or weed control at 35 g/ha,[6],95 to 100%
same,pest or weed control at 70 g/ha,[6],95 to 100%
same,pest or weed control at 17.5 g/ha,[7],95 to 100%
same,pest or weed control at 35 g/ha,[7],95 to 100%
same,pest or weed control at 70 g/ha,[7],95 to 100%
same,pest or weed control at 17.5 g/ha,[8],85 to 94%
same,pest or weed control at 35 g/ha,[8],95 to 100%
same,pest or weed control at 70 g/ha,[8],95 to 100%
same,pest or weed control at 17.5 g/ha,[9],85 to 94%
same,pest or weed control at 35 g/ha,[9],95 to 100%
same,pest or weed control at 70 g/ha,[9],95 to 100%
same,pest or weed control at 17.5 g/ha,[10],60 to 74%
same,pest or weed control at 35 g/ha,[10],75 to 84%
same,pest or weed control at 70 g/ha,[10],85 to 94%
same,pest or weed control at 17.5 g/ha,[11],95 to 100%
same,pest or weed control at 35 g/ha,[11],95 to 100%
same,pest or weed control at 70 g/ha,[11],95 to 100%
same,pest or weed control at 17.5 g/ha,[12],95 to 100%
same,pest or weed control at 35 g/ha,[12],95 to 100%
same,pest or weed control at 70 g/ha,[12],95 to 100%
